The source of these data is patent US9949953B2, “Topical compositions comprising fipronil and permethrin and methods of use” (priority 2012, dated 2018).

This assay concerns Stomoxys calcitrans. In words: Stable fly repellency and parasiticidal (diptericidal) efficacy on rats (Example 1). The class given is in vivo. How it is done: This study evaluated the effectiveness of a formulation of the invention containing fipronil and permethrin to repel and kill Stomoxys calcitrans on rats after a single administration. Rats in the treatment group (Group 2) were treated once on Day 0 with a topical formulation of the invention containing 9.2 (w/w) fipronil and 41.5% (w/w) permethrin in a solvent system containing DMDA and DGME in a ratio of 0.73:1, DMDA to DGME, to deliver a dose of 30 mg/kg permethrin and 6.7 mg/kg fipronil. Rats in Group 3 were treated with a formulation containing permethrin alone to deliver a dose of 30 mg/kg. The two treatment groups were compared with a control group treated with a solvent system placebo.
Flies are exposed to the treated rats for 1 hr., then removed. Dead flies are counted at the end of the exposure period and at 4 hr and 24 hr post-exposure. […] This finding is significant because fipronil is not known to have repellent activity.
The diptericidal efficacy of the formulations is shown in Table 1 and represented in FIG. 6. The data for repellency are shown in Table 2 and are represented in FIG. 7.

As to `CC1(C)C(C=C(Cl)Cl)C1C(=O)OCc1cccc(Oc2ccccc2)c1` (stereo not shown) [Permethrin], the “4 hr % efficacy” value (dead flies 4 hr post-exposure, single topical treatment Day 0) stood at 82.0%. For the setting “dead flies 24 hr post-exposure, single topical treatment Day 0”, the “24 hr % efficacy” value amounted to 74.7%. In addition, the EOE % efficacy (dead flies at end of 1 hr exposure period, single topical treatment Day 0) stood at 74.2%. Where the note is “single topical treatment Day 0, measured 24 hours after exposure”, the “% Repellency” value stood at 41.2%.
